Measurements published in US20150141248A1, “ANTIFUNGAL COMPOSITIONS” (DSM IP ASSETS B.V., priority 2011, published 2015).

Assays:
Fusarium proliferatum [1] = experiment: Treatment of wounded bananas inoculated with Fusarium proliferatum (mould growth); format: in vivo; conditions: for Number of moulded wounds/total number of 12 wounds: bananas 20° C.; for Observed antifungal activity O: bananas
Protocol: Four organic, unripe (green) bananas were used per treatment. The peel of each banana was wounded thrice using a cork borer according to the method described by de Lapeyre de Bellaire and Dubois (1987). Subsequently, each wound was inoculated with 15 μl of a Fusarium proliferatum suspension containing 1×10^5 of spores/ml. […] In addition, the antifungal compositions comprised 1.00% (w/w) methylhydroxyethylcellulose (MHEC), 0.40% (w/w) xanthan gum, 0.20% (w/w) anti-foaming agent, 0.30% (w/w) citric acid, 0.39% (w/w) lactic acid and 0.11% (w/w) potassium sorbate. The pH of the composition was 4.0. […] The treated, unripe bananas were incubated in a closed box in the dark at 20° C. and a relative air humidity of 95%, which was obtained in the presence of a saturated Na2HPO4 aqueous solution. During the first 20 days of incubation, a ripe (yellow) banana was included in the closed box to elevate the ethylene gas level and thus induce ripening of the treated, unripe bananas. […]
The expected antifungal activity (E in %) of the combined antifungal composition comprising both active ingredients was calculated according to the Colby equation (Colby, 1967): […]
wherein X and Y are the observed antifungal activities (in %) of the individual active ingredients X and Y, respectively. If the observed antifungal activity (O in %) of the combination exceeds the expected antifungal activity (E in %) of the combination and the synergy factor O/E is thus >1.0, the combined application of the active ingredients leads to a synergistic antifungal effect.

Botrytis cinerea = experiment: In vitro antifungal activity, 96-well microtiter plates; format: cell-based; conditions: in vitro 25° C., 5 days
Protocol: The following compositions were tested: […] Subsequently, 100 μl of a Botrytis cinerea suspension prepared in PCB medium was used to inoculated each well with 2.5×10^3 spores/ml. […] The expected antifungal activity (E in %) of the active ingredient combination was calculated according to the Colby equation (Colby, 1967): […] wherein X and Y are the observed antifungal activities (in %) of the individual active ingredients X and Y, respectively.

Fusarium proliferatum [2] = experiment: as above; format: cell-based; conditions: in vitro 25° C., 3 days
Protocol: Subsequently, 100 μl of a Botrytis cinerea suspension prepared in PCB medium was used to inoculated each well with 2.5×10^3 spores/ml.
, the in vitro antifungal activity (%) of the individual active ingredients was assessed by calculating the reduction in mould growth observed in the presence of the active ingredient in comparison to the mould growth observed in the absence of the active ingredient. The expected antifungal activity (E in %) of the active ingredient combination was calculated according to the Colby equation (Colby, 1967): […]
The experiment was conducted as described in Example 13, except for the fact that the following compositions were tested:
Furthermore, Fusarium proliferatum was used for inoculation. The antifungal activity (in %) of the individual and combined active ingredients was determined according to the method described in Example 13.

## CCCC1COC(Cn2cncn2)(c2ccc(Cl)cc2Cl)O1 (stereo not drawn) [Propiconazole, propiconazole]
Fusarium proliferatum [1]; 50 ppm natamycin, 250 ppm propiconazole or both, Day 29
  Number of moulded wounds/total number of 12 wounds: 5/12
Fusarium proliferatum [1]; 50 ppm natamycin, 250 ppm propiconazole or both, Day 29, listed as propiconazole
  Number of moulded wounds/total number of 12 wounds: 5
Fusarium proliferatum [1]; 50 ppm natamycin, 250 ppm propiconazole or both, Day 32
  Number of moulded wounds/total number of 12 wounds: 8/12
Fusarium proliferatum [1]; 50 ppm natamycin, 250 ppm propiconazole or both, Day 32, listed as propiconazole
  Number of moulded wounds/total number of 12 wounds: 8
Fusarium proliferatum [1]; 50 ppm natamycin, 250 ppm propiconazole or both, Day 34
  Number of moulded wounds/total number of 12 wounds: 10/12
Fusarium proliferatum [1]; 50 ppm natamycin, 250 ppm propiconazole or both, Day 34, listed as propiconazole
  Number of moulded wounds/total number of 12 wounds: 10
Fusarium proliferatum [1]; 50 ppm natamycin, 250 ppm propiconazole or both, Day 36
  Number of moulded wounds/total number of 12 wounds: 12/12
Fusarium proliferatum [1]; 50 ppm natamycin, 250 ppm propiconazole or both, Day 36, listed as propiconazole
  Number of moulded wounds/total number of 12 wounds: 12
Fusarium proliferatum [1]; 50 ppm natamycin, 250 ppm propiconazole or both, Day 39
  Number of moulded wounds/total number of 12 wounds: 12/12
Fusarium proliferatum [1]; 50 ppm natamycin, 250 ppm propiconazole or both, Day 39, listed as propiconazole
  Number of moulded wounds/total number of 12 wounds: 12
Fusarium proliferatum [1]; 50 ppm natamycin, 250 ppm propiconazole or both, Day 42
  Number of moulded wounds/total number of 12 wounds: 12/12
Fusarium proliferatum [1]; 50 ppm natamycin, 250 ppm propiconazole or both, Day 42, listed as propiconazole
  Number of moulded wounds/total number of 12 wounds: 12
Fusarium proliferatum [1]; 250 ppm natamycin, 500 ppm propiconazole or both, Day 34
  Number of moulded wounds/total number of 12 wounds: 10/12
Fusarium proliferatum [1]; 250 ppm natamycin, 500 ppm propiconazole or both, Day 34, listed as propiconazole
  Number of moulded wounds/total number of 12 wounds: 10
Fusarium proliferatum [1]; 250 ppm natamycin, 500 ppm propiconazole or both, Day 36
  Number of moulded wounds/total number of 12 wounds: 10/12
Fusarium proliferatum [1]; 250 ppm natamycin, 500 ppm propiconazole or both, Day 36, listed as propiconazole
  Number of moulded wounds/total number of 12 wounds: 10
Fusarium proliferatum [1]; 500 ppm natamycin, 150 ppm propiconazole or both, Day 26
  Number of moulded wounds/total number of 12 wounds: 9/12
Fusarium proliferatum [1]; 500 ppm natamycin, 150 ppm propiconazole or both, Day 26, listed as propiconazole
  Number of moulded wounds/total number of 12 wounds: 9
Fusarium proliferatum [1]; 500 ppm natamycin, 150 ppm propiconazole or both, Days 27-29
  Number of moulded wounds/total number of 12 wounds: 12/12
Fusarium proliferatum [1]; 500 ppm natamycin, 150 ppm propiconazole or both, Days 27-29, listed as propiconazole
  Number of moulded wounds/total number of 12 wounds: 12
Fusarium proliferatum [1]; 500 ppm natamycin, 150 ppm propiconazole or both, Days 31-32
  Number of moulded wounds/total number of 12 wounds: 12/12
Fusarium proliferatum [1]; 500 ppm natamycin, 150 ppm propiconazole or both, Days 31-32, listed as propiconazole
  Number of moulded wounds/total number of 12 wounds: 12
Fusarium proliferatum [1]; 500 ppm natamycin, 1000 ppm propiconazole or both, Day 39
  Number of moulded wounds/total number of 12 wounds: 4/12
Fusarium proliferatum [1]; 500 ppm natamycin, 1000 ppm propiconazole or both, Day 39, listed as propiconazole
  Number of moulded wounds/total number of 12 wounds: 4
Fusarium proliferatum [1]; 500 ppm natamycin, 1000 ppm propiconazole or both, Day 42
  Number of moulded wounds/total number of 12 wounds: 4/12
Fusarium proliferatum [1]; 500 ppm natamycin, 1000 ppm propiconazole or both, Day 42, listed as propiconazole
  Number of moulded wounds/total number of 12 wounds: 4
Fusarium proliferatum [1]; 50 ppm natamycin, 250 ppm propiconazole or both, 29 days
  Observed antifungal activity O: 92%
Fusarium proliferatum [1]; 50 ppm natamycin, 250 ppm propiconazole or both, 32 days
  Observed antifungal activity O: 90%
Fusarium proliferatum [1]; 50 ppm natamycin, 250 ppm propiconazole or both, 34 days
  Observed antifungal activity O: 85%
Fusarium proliferatum [1]; 50 ppm natamycin, 250 ppm propiconazole or both, 36 days
  Observed antifungal activity O: 81%
Fusarium proliferatum [1]; 50 ppm natamycin, 250 ppm propiconazole or both, 39 days
  Observed antifungal activity O: 57%
Fusarium proliferatum [1]; 50 ppm natamycin, 250 ppm propiconazole or both, 42 days
  Observed antifungal activity O: 47%
Fusarium proliferatum [1]; 250 ppm natamycin, 50 ppm propiconazole or both, 23 days
  Observed antifungal activity O: 36%
Fusarium proliferatum [1]; 250 ppm natamycin, 50 ppm propiconazole or both, 27 days
  Observed antifungal activity O: 30%
Fusarium proliferatum [1]; 250 ppm natamycin, 50 ppm propiconazole or both, 29 days
  Observed antifungal activity O: 35%
Fusarium proliferatum [1]; 250 ppm natamycin, 500 ppm propiconazole or both, 34 days
  Observed antifungal activity O: 74%
Fusarium proliferatum [1]; 250 ppm natamycin, 500 ppm propiconazole or both, 36 days
  Observed antifungal activity O: 62%
Fusarium proliferatum [1]; 250 ppm natamycin, 500 ppm propiconazole or both, 39 days
  Observed antifungal activity O: 43%
Fusarium proliferatum [1]; 250 ppm natamycin, 500 ppm propiconazole or both, 42 days
  Observed antifungal activity O: 33%
Fusarium proliferatum [1]; 500 ppm natamycin, 150 ppm propiconazole or both, 27 days
  Observed antifungal activity O: 57%
Fusarium proliferatum [1]; 500 ppm natamycin, 150 ppm propiconazole or both, 28 days
  Observed antifungal activity O: 56%
Fusarium proliferatum [1]; 500 ppm natamycin, 150 ppm propiconazole or both, 29 days
  Observed antifungal activity O: 54%
Fusarium proliferatum [1]; 500 ppm natamycin, 150 ppm propiconazole or both, 31 days
  Observed antifungal activity O: 44%
Fusarium proliferatum [1]; 500 ppm natamycin, 150 ppm propiconazole or both, 32 days
  Observed antifungal activity O: 33%
Botrytis cinerea; natamycin 0.63 ppm, propiconazole 1.00 ppm or both
  Observed antifungal activity O: 0%
Botrytis cinerea; natamycin 1.25 ppm, propiconazole 0.50 ppm, prothioconazole 0.13 ppm, or natamycin 1.25 ppm with either
  Observed antifungal activity O: 0%
Fusarium proliferatum [2]; natamycin 2.5 ppm, propiconazole 7.5 ppm or both
  Observed antifungal activity O: 0%
Fusarium proliferatum [2]; propiconazole 10.0 ppm alone or with natamycin 2.5 ppm
  Observed antifungal activity O: 0%
